Measured values from US20240325398A1, “COMBINATION THERAPIES” (Infinity Pharmaceuticals, Inc., priority 2014, published 2024).

What was measured:
SU-DHL-6-epst = experiment: Combination study of Compound 1 or CAL-101 and a second therapeutic agent (Synergy Score, CI50); type: cell-based
OCI-Ly7 = experiment: Combination study, ATPLite 72 h, dose matrix (Synergy Score, CI50)
SU-DHL-4-epst = experiment: as above
DOHH-2 = experiment: as above
Farage = experiment: as above; conditions: Farage

In the case of CC[C@H](Nc1ncnc2[nH]cnc12)c1nc2cccc(F)c2c(=O)n1-c1ccccc1 [CAL-101], the CI50 growth inhibition (SU-DHL-6-epst; combination with Dexamethasone) is reported as “T (T=0.5 to <0.7)”, the CI50 inhibition (SU-DHL-6-epst; combination with Dexamethasone) is reported as “S (S=0.01 to <0.5)” and the “Synergy Score growth inhibition” value (SU-DHL-6-epst; combination with Dexamethasone) is reported as “A2 (A2=1 to <3)”. The “Synergy Score inhibition” value (SU-DHL-6-epst; combination with Dexamethasone) was “A2 (A2=1 to <3)”, the CI50 growth inhibition (SU-DHL-6-epst; combination with LEE011) was “S (S=0.01 to <0.5)” and the CI50 inhibition (SU-DHL-6-epst; combination with LEE011) was “S (S=0.01 to <0.5)”. The “Synergy Score growth inhibition” value (SU-DHL-6-epst; combination with LEE011) was “A2 (A2=1 to <3)”, the “Synergy Score inhibition” value (SU-DHL-6-epst; combination with LEE011) was “A2 (A2=1 to <3)” and the CI50 growth inhibition (SU-DHL-6-epst; combination with PCI-32765) was “T (T=0.5 to <0.7)”. For the same molecule, the CI50 inhibition (SU-DHL-6-epst; combination with PCI-32765) was “T (T=0.5 to <0.7)”, the “Synergy Score growth inhibition” value (SU-DHL-6-epst; combination with PCI-32765) was “A2 (A2=1 to <3)” and the “Synergy Score inhibition” value (SU-DHL-6-epst; combination with PCI-32765) was “A2 (A2=1 to <3)”. The CI50 growth inhibition (SU-DHL-6-epst; combination with PD-0332991) was “T (T=0.5 to <0.7)”, the CI50 inhibition (SU-DHL-6-epst; combination with PD-0332991) was “T (T=0.5 to <0.7)” and the “Synergy Score growth inhibition” value (SU-DHL-6-epst; combination with PD-0332991) was “A2 (A2=1 to <3)”. For the same molecule, the “Synergy Score inhibition” value (SU-DHL-6-epst; combination with PD-0332991) was “A2 (A2=1 to <3)”, the CI50 growth inhibition (OCI-Ly7; combination with Dexamethasone) was “S (S=0.01 to <0.5)” and the CI50 inhibition (OCI-Ly7; combination with Dexamethasone) was “T (T=0.5 to <0.7)”. For the same molecule, the “Synergy Score growth inhibition” value (OCI-Ly7; combination with Dexamethasone) was “A3 (A3=>3)”, the “Synergy Score inhibition” value (OCI-Ly7; combination with Dexamethasone) was “A2 (A2=1 to <3)” and the CI50 growth inhibition (OCI-Ly7; combination with LEE011) was “W (W=≥1)”. For the same molecule, the “Synergy Score growth inhibition” value (OCI-Ly7; combination with LEE011) was “A1 (A1=0.0001 to <1)”, the “Synergy Score inhibition” value (OCI-Ly7; combination with LEE011) was “A1 (A1=0.0001 to <1)” and the CI50 growth inhibition (OCI-Ly7; combination with PCI-32765) was “W (W=≥1)”. The “Synergy Score growth inhibition” value (OCI-Ly7; combination with PCI-32765) was “A1 (A1=0.0001 to <1)”, the “Synergy Score inhibition” value (OCI-Ly7; combination with PCI-32765) was “A1 (A1=0.0001 to <1)” and the CI50 growth inhibition (OCI-Ly7; combination with PD-0332991) was “S (S=0.01 to <0.5)”. For the same molecule, the CI50 inhibition (OCI-Ly7; combination with PD-0332991) was “T (T=0.5 to <0.7)”, the “Synergy Score growth inhibition” value (OCI-Ly7; combination with PD-0332991) was “A2 (A2=1 to <3)” and the “Synergy Score inhibition” value (OCI-Ly7; combination with PD-0332991) was “A2 (A2=1 to <3)”. The CI50 growth inhibition (SU-DHL-4-epst; combination with Dexamethasone) was “S (S=0.01 to <0.5)”, the CI50 inhibition (SU-DHL-4-epst; combination with Dexamethasone) was “S (S=0.01 to <0.5)” and the “Synergy Score growth inhibition” value (SU-DHL-4-epst; combination with Dexamethasone) was “A3 (A3=>3)”. The “Synergy Score inhibition” value (SU-DHL-4-epst; combination with Dexamethasone) was “A3 (A3=>3)”, the CI50 growth inhibition (SU-DHL-4-epst; combination with LEE011) was “S (S=0.01 to <0.5)” and the CI50 inhibition (SU-DHL-4-epst; combination with LEE011) was “T (T=0.5 to <0.7)”. For the same molecule, the “Synergy Score growth inhibition” value (SU-DHL-4-epst; combination with LEE011) was “A2 (A2=1 to <3)”, the “Synergy Score inhibition” value (SU-DHL-4-epst; combination with LEE011) was “A2 (A2=1 to <3)” and the CI50 growth inhibition (SU-DHL-4-epst; combination with PCI-32765) was “S (S=0.01 to <0.5)”. For the same molecule, the CI50 inhibition (SU-DHL-4-epst; combination with PCI-32765) was “S (S=0.01 to <0.5)”, the “Synergy Score growth inhibition” value (SU-DHL-4-epst; combination with PCI-32765) was “A3 (A3=>3)” and the “Synergy Score inhibition” value (SU-DHL-4-epst; combination with PCI-32765) was “A2 (A2=1 to <3)”. For the same molecule, the CI50 growth inhibition (SU-DHL-4-epst; combination with PD-0332991) was “S (S=0.01 to <0.5)”, the CI50 inhibition (SU-DHL-4-epst; combination with PD-0332991) was “S (S=0.01 to <0.5)” and the “Synergy Score growth inhibition” value (SU-DHL-4-epst; combination with PD-0332991) was “A3 (A3=>3)”. The “Synergy Score inhibition” value (SU-DHL-4-epst; combination with PD-0332991) was “A2 (A2=1 to <3)”, the CI50 growth inhibition (DOHH-2; combination with Dexamethasone) was “T (T=0.5 to <0.7)” and the CI50 inhibition (DOHH-2; combination with Dexamethasone) was “U (U=0.7 to <1)”. For the same molecule, the “Synergy Score growth inhibition” value (DOHH-2; combination with Dexamethasone) was “A3 (A3=>3)”, the “Synergy Score inhibition” value (DOHH-2; combination with Dexamethasone) was “A2 (A2=1 to <3)” and the CI50 growth inhibition (DOHH-2; combination with LEE011) was “T (T=0.5 to <0.7)”. The CI50 inhibition (DOHH-2; combination with LEE011) was “T (T=0.5 to <0.7)”, the “Synergy Score growth inhibition” value (DOHH-2; combination with LEE011) was “A3 (A3=>3)” and the “Synergy Score inhibition” value (DOHH-2; combination with LEE011) was “A2 (A2=1 to <3)”. The CI50 growth inhibition (DOHH-2; combination with PCI-32765) was “S (S=0.01 to <0.5)”, the CI50 inhibition (DOHH-2; combination with PCI-32765) was “S (S=0.01 to <0.5)” and the “Synergy Score growth inhibition” value (DOHH-2; combination with PCI-32765) was “A3 (A3=>3)”. The “Synergy Score inhibition” value (DOHH-2; combination with PCI-32765) was “A3 (A3=>3)”, the CI50 growth inhibition (DOHH-2; combination with PD-0332991) was “T (T=0.5 to <0.7)” and the CI50 inhibition (DOHH-2; combination with PD-0332991) was “T (T=0.5 to <0.7)”. The “Synergy Score growth inhibition” value (DOHH-2; combination with PD-0332991) was “A3 (A3=>3)”, the “Synergy Score inhibition” value (DOHH-2; combination with PD-0332991) was “A2 (A2=1 to <3)” and the CI50 growth inhibition (Farage; combination with Dexamethasone) was “U (U=0.7 to <1)”. For the same molecule, the CI50 inhibition (Farage; combination with Dexamethasone) was “S (S=0.01 to <0.5)”, the “Synergy Score growth inhibition” value (Farage; combination with Dexamethasone) was “A3 (A3=>3)” and the “Synergy Score inhibition” value (Farage; combination with Dexamethasone) was “A3 (A3=>3)”. The CI50 growth inhibition (Farage; combination with LEE011) was “W (W=≥1)”, the CI50 inhibition (Farage; combination with LEE011) was “W (W=≥1)” and the “Synergy Score growth inhibition” value (Farage; combination with LEE011) was “A1 (A1=0.0001 to <1)”. The “Synergy Score inhibition” value (Farage; combination with LEE011) was “A1 (A1=0.0001 to <1)” and the CI50 growth inhibition (Farage; combination with PCI-32765) was “S (S=0.01 to <0.5)”.
